Source: patent US20230081426A1, “COMPOUNDS AND METHODS FOR KRAS MODULATION AND INDICATIONS THEREFOR” (Plexxikon Inc., priority 2020, published 2023)

How the values were obtained:
[1] = biological target: T1, G12D-mutant human KRAS (amino acid residues 1-188) (Homo sapiens, UniProt P01116, G12D); experiment: KRAS Binding Disruption Assay (AlphaScreen; biotinylated KRpep-2d analogue or RAF1-RBD), G12D; details: KRAS G12D; geometric mean; read-out: KRAS GMean IC50 (uM) MUTATION: G12D
T1 construct: G12D or G12C-mutant human KRAS (amino acid residues 1-188) with FLAG tag; made in house; host or cells: E. coli
T1 sequence (P01116 1-188 isoform P01116-2 G12D): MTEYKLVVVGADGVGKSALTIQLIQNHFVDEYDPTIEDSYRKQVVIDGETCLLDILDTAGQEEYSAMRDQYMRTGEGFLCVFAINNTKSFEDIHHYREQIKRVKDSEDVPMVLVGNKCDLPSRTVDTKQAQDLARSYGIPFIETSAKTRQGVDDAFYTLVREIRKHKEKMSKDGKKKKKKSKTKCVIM
In short: (§1)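 Mutant KRAS (5-20 nM) incubated 1 h at 25° C with test compound and 5-20 nM biotinylated KRpep-2d analogue or RAF1-RBD in 20 mM HEPES pH 7.5, 100 mM NaCl, 5 mM MgCl2, 0.01% Tween-20, 0.01% BSA.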

[2] = biological target: T2, G12C-mutant human KRAS (amino acid residues 1-188) (Homo sapiens, UniProt P01116, G12C); experiment: KRAS Binding Disruption Assay (AlphaScreen; biotinylated KRpep-2d analogue or RAF1-RBD), G12C; details: geometric mean, read-out: KRAS GMean IC50 (uM) MUTATION: G12C
T2 construct: G12D or G12C-mutant human KRAS (amino acid residues 1-188) with FLAG tag; made in house; host or cells: E. coli
T2 sequence (P01116 1-188 isoform P01116-2 G12C): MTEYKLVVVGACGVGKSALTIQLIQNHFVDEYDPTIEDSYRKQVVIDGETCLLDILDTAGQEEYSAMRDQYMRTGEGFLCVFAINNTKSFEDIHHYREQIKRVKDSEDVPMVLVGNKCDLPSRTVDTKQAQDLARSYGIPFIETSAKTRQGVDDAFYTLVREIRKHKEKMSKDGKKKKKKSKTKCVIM
In short: as §1

Compound | IC50 [1] | IC50 [2]
CC(C)(COc1nc(N2C[C@H]3CC[C@@H](C2)N3)c2ccc(-c3cc(O)cc4ccccc34)c(F)c2n1)NC(=O)OCc1ccccc1 [P-0735, benzyl (1-((4-((1R,5S)-3,8-diazabicyclo[3.2.1]octan-3-yl)-8-fluoro-7-(3-hydroxynaphthalen-1-yl)quinazolin-2-yl)oxy)-2-methylpropan-2-yl)carbamate] | 0.0001 to 10 µM | 100 to 1000 µM
CN(C)C(C)(C)COc1nc(N2C[C@H]3CC[C@@H](C2)N3)c2ccc(-c3cc(O)cc4ccccc34)c(F)c2n1 [P-0736, 4-(4-((1R,5S)-3,8-diazabicyclo[3.2.1]octan-3-yl)-2-(2-(dimethylamino)-2-methylpropoxy)-8-fluoroquinazolin-7-yl)naphthalen-2-ol] | 0.0001 to 10 µM | 10 to 100 µM
Oc1cc(-c2ccc3c(N4C[C@H]5CC[C@@H](C4)N5)nc(OCC4CCC(F)(F)C4)nc3c2F)c2ccccc2c1 (stereo partly drawn) [P-0738, 4-(4-((1R,5S)-3,8-diazabicyclo[3.2.1]octan-3-yl)-2-((3,3-difluorocyclopentyl)methoxy)-8-fluoroquinazolin-7-yl)naphthalen-2-ol] | 0.0001 to 10 µM | 10 to 100 µM
Oc1cc(-c2ccc3c(N4C[C@H]5CC[C@@H](C4)N5)nc(OCC4CC(F)(F)C4(F)F)nc3c2F)c2ccccc2c1 (stereo partly drawn) [P-0740, 4-(4-((1R,5S)-3,8-diazabicyclo[3.2.1]octan-3-yl)-8-fluoro-2-((2,2,3,3-tetrafluorocyclobutyl)methoxy)quinaz-olin-7-yl)naphthalen-2-ol] | 0.0001 to 10 µM | 10 to 100 µM
Oc1cc(-c2ccc3c(N4C[C@H]5CC[C@@H](C4)N5)nc(OCC4CC4(F)F)nc3c2F)c2ccccc2c1 (stereo partly drawn) [P-0741, 4-(4-((1R,5S)-3,8-diazabicyclo[3.2.1]octan-3-yl)-2-((2,2-difluorocyclopropyl)methoxy)-8-fluoroquinazolin-7-yl)naphthalen-2-ol] | 0.0001 to 10 µM | 10 to 100 µM
O=C(O)CCOc1nc(N2C[C@H]3CC[C@@H](C2)N3)c2ccc(-c3cc(O)cc4ccccc34)c(F)c2n1 [P-0743, 3-((4-((1R,5S)-3,8-diazabicyclo[3.2.1]octan-3-yl)-8-fluoro-7-(3-hydroxynaphthalen-1-yl)quinazolin-2-yl)oxy)propanoic acid] | 0.0001 to 10 µM | 10 to 100 µM
CC(C)(C)OC(=O)COc1nc(N2C[C@H]3CC[C@@H](C2)N3)c2ccc(-c3cc(O)cc4ccccc34)c(F)c2n1 [P-0744, tert-butyl 2-((4-((1R,5S)-3,8-diazabicyclo[3.2.1]octan-3-yl)-8-fluoro-7-(3-hydroxynaphthalen-1-yl)quinazolin-2-yl)oxy)acetate] | 0.0001 to 10 µM | 10 to 100 µM
O=C(O)COc1nc(N2C[C@H]3CC[C@@H](C2)N3)c2ccc(-c3cc(O)cc4ccccc34)c(F)c2n1 [P-0745, 2-((4-((1R,5S)-3,8-diazabicyclo[3.2.1]octan-3-yl)-8-fluoro-7-(3-hydroxynaphthalen-1-yl)quinazolin-2-yl)oxy)acetic acid] | 0.0001 to 10 µM | 10 to 100 µM
Oc1cc(-c2ccc3c(N4C[C@H]5CC[C@@H](C4)N5)nc(OCC(F)F)nc3c2F)c2ccccc2c1 [P-0749, 4-(4-((1R,5S)-3,8-diazabicyclo[3.2.1]octan-3-yl)-2-(2,2-difluoroethoxy)-8-fluoroquinazolin-7-yl)naphthalen-2-ol] | 0.0001 to 10 µM | 10 to 100 µM
N#CC1CC(COc2nc(N3C[C@H]4CC[C@@H](C3)N4)c3ccc(-c4cc(O)cc5ccccc45)c(F)c3n2)C1 (stereo partly drawn) [P-0751, 3-(((4-((1R,5S)-3,8-diazabicyclo[3.2.1]octan-3-yl)-8-fluoro-7-(3-hydroxynaphthalen-1-yl)quinazolin-2-yl)oxy)methyl)cyclobutane-1-carbonitrile] | 0.0001 to 10 µM | 10 to 100 µM
Oc1cc(-c2ccc3c(N4C[C@H]5CC[C@@H](C4)N5)nc(OCC4CCC(F)(F)CC4)nc3c2F)c2ccccc2c1 [P-0752, 4-(4-((1R,5S)-3,8-diazabicyclo[3.2.1]octan-3-yl)-2-((4,4-difluorocyclohexyl)methoxy)-8-fluoroquinazolin-7-yl)naphthalen-2-ol] | 0.0001 to 10 µM | 10 to 100 µM
CN(C)CCOc1nc(N2C[C@H]3CC[C@@H](C2)N3)c2ccc(-c3cc(O)cc4ccccc34)c(F)c2n1 [P-0753, 4-(4-((1R,5S)-3,8-diazabicyclo[3.2.1]octan-3-yl)-2-(2-(dimethylamino)ethoxy)-8-fluoroquinazolin-7-yl)naphthalen-2-ol] | 0.0001 to 10 µM | 0.0001 to 10 µM
CNCCc1nc(N2C[C@H]3CC[C@@H](C2)N3)c2ccc(-c3cc(O)cc4ccccc34)c(F)c2n1 [P-0754, 4-(4-((1R,5S)-3,8-diazabicyclo[3.2.1]octan-3-yl)-8-fluoro-2-(2-(methylamino)ethyl)quinazolin-7-yl)naphthalen-2-ol] | 0.0001 to 10 µM | 10 to 100 µM
CC(CCBr)Oc1nc(N2C[C@H]3CC[C@@H](C2)N3)c2ccc(-c3cc(O)cc4ccccc34)c(F)c2n1 (stereo partly drawn) [P-0755, 4-(4-((1R,5S)-3,8-diazabicyclo[3.2.1]octan-3-yl)-2-((4-bromobutan-2-yl)oxy)-8-fluoroquinazolin-7-yl)naphthalen-2-ol] | 0.0001 to 10 µM | 10 to 100 µM

Now from value to compound:

IC50 [1] | IC50 [2] | Compound
0.0001 to 10 µM | 0.0001 to 10 µM | Fc1cc2c(N3C[C@H]4CC[C@@H](C3)N4)nc(OCC34CCCN3CCC4)nc2c(F)c1-c1c[nH]c2cccc(C(F)(F)F)c12 [P-0737, 4-((1R,5S)-3,8-diazabicyclo[3.2.1]octan-3-yl)-6,8-difluoro-2-((tetrahydro-1H-pyrrolizin-7a(5H)-yl)methoxy)-7-(4-(trifluoromethyl)-1H-indol-3-yl)quinazoline]
0.0001 to 10 µM | 10 to 100 µM | Oc1cc(-c2ccc3c(N4C[C@H]5CC[C@@H](C4)N5)nc(OCC4CCCC4(F)F)nc3c2F)c2ccccc2c1 (stereo partly drawn) [P-0739, 4-(4-((1R,5S)-3,8-diazabicyclo[3.2.1]octan-3-yl)-2-((2,2-difluorocyclopentyl)methoxy)-8-fluoroquinazolin-7-yl)naphthalen-2-ol]
0.0001 to 10 µM | 10 to 100 µM | CN1C(=O)CCC1COc1nc(N2C[C@H]3CC[C@@H](C2)N3)c2ccc(-c3cc(O)cc4ccccc34)c(F)c2n1 (stereo partly drawn) [P-0742, 5-(((4-((1R,5S)-3,8-diazabicyclo[3.2.1]octan-3-yl)-8-fluoro-7-(3-hydroxynaphthalen-1-yl)quinazolin-2-yl)oxy)methyl)-1-methylpyrrolidin-2-one]
0.0001 to 10 µM | 10 to 100 µM | Fc1cc2c(N3C[C@H]4CC[C@@H](C3)N4)nc(OCC34CCCN3CCC4)nc2c(F)c1-c1c[nH]c2c(F)ccc(F)c12 [P-0746, 4-((1R,5S)-3,8-diazabicyclo[3.2.1]octan-3-yl)-7-(4,7-difluoro-1H-indol-3-yl)-6,8-difluoro-2-((tetrahydro-1H-pyrrolizin-7a(5H)-yl)methoxy)quinazoline]
0.0001 to 10 µM | 10 to 100 µM | Fc1cc(F)c2[nH]cc(-c3c(F)cc4c(N5C[C@H]6CC[C@@H](C5)N6)nc(OCC56CCCN5CCC6)nc4c3F)c2c1 [P-0747, 4-((1R,5S)-3,8-diazabicyclo[3.2.1]octan-3-yl)-7-(5,7-difluoro-1H-indol-3-yl)-6,8-difluoro-2-((tetrahydro-1H-pyrrolizin-7a(5H)-yl)methoxy)quinazoline]
0.0001 to 10 µM | 10 to 100 µM | CC(F)(F)COc1nc(N2C[C@H]3CC[C@@H](C2)N3)c2ccc(-c3cc(O)cc4ccccc34)c(F)c2n1 [P-0748, 4-(4-((1R,5S)-3,8-diazabicyclo[3.2.1]octan-3-yl)-2-(2,2-difluoropropoxy)-8-fluoroquinazolin-7-yl)naphthalen-2-ol]
0.0001 to 10 µM | 10 to 100 µM | Oc1cc(-c2ccc3c(N4C[C@H]5CC[C@@H](C4)N5)nc(OCC4CCC4)nc3c2F)c2ccccc2c1 [P-0750, 4-(4-((1R,5S)-3,8-diazabicyclo[3.2.1]octan-3-yl)-2-(cyclobutylmethoxy)-8-fluoroquinazolin-7-yl)naphthalen-2-ol]
0.0001 to 10 µM | 100 to 1000 µM | CN1CCC[C@H]1COc1nc(N2C[C@H]3CC[C@@H](C2)N3)c2cc(F)c(-c3c[nH]c4ccc(Cl)nc34)c(F)c2n1 [P-0756, 4-((1R,5S)-3,8-diazabicyclo[3.2.1]octan-3-yl)-7-(5-chloro-1H-pyrrolo[3,2-b]pyridin-3-yl)-6,8-difluoro-2-(((S)-1-methylpyrrolidin-2-yl)methoxy)quinazoline]
0.0001 to 10 µM | 100 to 1000 µM | CN1CCC[C@H]1COc1nc(N2C[C@H]3CC[C@@H](C2)N3)c2cc(F)c(-c3c[nH]c4ccc(C(F)(F)F)cc34)c(F)c2n1 [P-0757, 4-((1R,5S)-3,8-diazabicyclo[3.2.1]octan-3-yl)-6,8-difluoro-2-(((S)-1-methylpyrrolidin-2-yl)methoxy)-7-(5-(trifluoromethyl)-1H-indol-3-yl)quinazoline]
0.0001 to 10 µM | 100 to 1000 µM | Cc1ccc2[nH]cc(-c3c(F)cc4c(N5C[C@H]6CC[C@@H](C5)N6)nc(OC[C@@H]5CCCN5C)nc4c3F)c2c1 [P-0758, 4-((1R,5S)-3,8-diazabicyclo[3.2.1]octan-3-yl)-6,8-difluoro-7-(5-methyl-1H-indol-3-yl)-2-(((S)-1-methylpyrrolidin-2-yl)methoxy)quinazoline]
0.0001 to 10 µM | 10 to 100 µM | CN1CCC[C@H]1COc1nc(N2C[C@H]3CC[C@@H](C2)N3)c2cc(F)c(-c3c[nH]c4cc(F)ccc34)c(F)c2n1 [P-0759, 4-((1R,5S)-3,8-diazabicyclo[3.2.1]octan-3-yl)-6,8-difluoro-7-(6-fluoro-1H-indol-3-yl)-2-(((S)-1-methylpyrrolidin-2-yl)methoxy)quinazoline]
